Test results taken from PMC8963254, “Effects of Lysine N-ζ-Methylation in Ultrashort Tetrabasic Lipopeptides (UTBLPs) on the Potentiation of Rifampicin, Novobiocin, and Niclosamide in Gram-Negative Bacteria” (Antibiotics, 2022).
≈ marks a conversion by molar mass, not a printed value. Read-outs that look alike come from different tables or passages of the source. Non-standard residues stand in square brackets, D forms with d. Residues, ends and D or L forms follow the SMILES beside them. *: point of attachment. Lys(Me) = CNCCCC[C@H](N)C(=O)O; Octanoyl = CCCCCCCC(=O)*

Assays:
E. coli ATCC 25922 [1] = assay type: cell-based, Escherichia coli; conditions: ATCC 25922, 18 h
Description: (§1) The in vitro antibacterial activity of the UTBLPs was assessed against wild-type and clinically isolated bacterial strains. To obtain the MIC of the compounds, the microbroth dilution susceptibility assay was performed according to the Clinical and Laboratory Standards Institute (CLSI, Wayne, PA, USA) guidelines and as previously described. Briefly, the compounds at varying concentrations were incubated with bacterial inoculum (5 × 10^5 CFU/mL final concentration) at 37 °C for 18 h. Growth in the form of turbidity was confirmed using an EMax Plus microplate reader (Molecular Devices, San Jose, CA, USA) at 590 nm.

MRSA ATCC 33592 [2] = assay type: cell-based, Staphylococcus aureus; conditions: ATCC 33592, 18 h
Description: as §1

S. aureus ATCC 29213 [3] = assay type: cell-based, Staphylococcus aureus; conditions: ATCC 29213, 18 h
Description: as §1

E. faecalis ATCC 29212 = assay type: cell-based, Enterococcus faecalis; conditions: ATCC 29212, 18 h
Description: as §1

E. faecium ATCC 27270 [4] = assay type: cell-based, Enterococcus faecium; conditions: ATCC 27270, 18 h
Description: as §1

[5] = test system: P. aeruginosa PA259-96196; assay: microbe, parasite or virus in culture; assay type: cell-based, Pseudomonas aeruginosa; conditions: PA259-96196, 18 h
Procedure, shortened: (§2)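 Turbidity at 590 nm defined growth, from which the MIC was taken. Cultures at a final density of 5 × 10^5 CFU/mL were exposed to a range of compound levels at 37 °C for 18 h in a CLSI-based microdilution format.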

[6] = test system: P. aeruginosa PA262-101856; assay: microbe, parasite or virus in culture; assay type: cell-based, Pseudomonas aeruginosa; conditions: PA262-101856, 18 h
Procedure, shortened: as §2

MRSE 61589 = assay type: cell-based, Staphylococcus epidermidis; conditions: 61589, 18 h
Description: as §1

MSSE 81388 = assay type: cell-based, Staphylococcus epidermidis; conditions: 18 h
Description: as §1

E. coli 94393 = assay type: cell-based, Escherichia coli; conditions: for MICUTBLP: UTBLP alone
Procedure, shortened: (§3)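 Checkerboard synergy assay: antibiotic and OMP combined at varying concentrations with 5 × 10^5 CFU/mL inoculum (final), 37 °C, 18 h; growth read as turbidity at 590 nm. FICI = sum of FICs (MIC in combination / MIC alone); ≤0.5 synergistic, 0.5–4 additive, >4 antagonistic.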

E. coli ATCC 25922 [7] = assay type: cell-based, Escherichia coli; conditions: for MICUTBLP: UTBLP alone
Procedure, shortened: as §3

E. cloacae 118564 = assay type: cell-based, Enterobacter cloacae; conditions: for MICUTBLP: UTBLP alone
Procedure, shortened: as §3

K. pneumoniae 113250 = assay type: cell-based, Klebsiella pneumoniae; conditions: for MICUTBLP: UTBLP alone
Procedure, shortened: as §3

MRSA ATCC 33592 [8] = assay type: cell-based, Staphylococcus aureus
Procedure, shortened: as §3

S. aureus ATCC 29213 [9] = assay type: cell-based, Staphylococcus aureus
Procedure, shortened: as §3

E. faecium ATCC 27270 [10] = assay type: cell-based, Enterococcus faecium
Procedure, shortened: as §3

[11] = UTBLP in combination with novobiocin
[12] = UTBLP in combination with rifampicin
[13] = novobiocin in combination with the UTBLP
[14] = rifampicin in combination with the UTBLP
[15] = UTBLP in combination with chloramphenicol
[16] = chloramphenicol in combination with the UTBLP
[17] = UTBLP alone, plate with chloramphenicol

MIC (E. coli ATCC 25922 [1]): 32 µg/mL (≈ 33.1 µM)
MIC (MRSA ATCC 33592 [2]): >128 µg/mL
MIC (S. aureus ATCC 29213 [3]): 128 µg/mL (≈ 132 µM)
MIC (E. faecalis ATCC 29212): 32 µg/mL (≈ 33.1 µM)
MIC (E. faecium ATCC 27270 [4]): 64 µg/mL (≈ 66.2 µM)
MIC [5]: > 128 µg/mL
MIC [6]: > 128 µg/mL
MIC (MRSE 61589): 16 µg/mL (≈ 16.6 µM)
MIC (MSSE 81388): 16 µg/mL (≈ 16.6 µM)
MICUTBLP (E. coli 94393; plate with novobiocin): 64 µg/mL
MICUTBLP (E. coli 94393; plate with rifampicin): 64 µg/mL
MICUTBLP [MICcombo] (E. coli 94393; [11]): 4 µg/mL
MICUTBLP [MICcombo] (E. coli 94393; [12]): 4 µg/mL
MICantibiotic [MICcombo] (E. coli 94393; [13]): 1 µg/mL
MICantibiotic [MICcombo] (E. coli 94393; [14]): 0.25 µg/mL
MICUTBLP (E. coli ATCC 25922 [7]; plate with chloramphenicol): 32 µg/mL
MICUTBLP (E. coli ATCC 25922 [7]; plate with niclosamide): 32 µg/mL
MICUTBLP (E. coli ATCC 25922 [7]; plate with novobiocin): 32 µg/mL
MICUTBLP (E. coli ATCC 25922 [7]; plate with rifampicin): 32 µg/mL
MICUTBLP [MICcombo] (E. coli ATCC 25922 [7]; [15]): 8 µg/mL
MICUTBLP [MICcombo] (E. coli ATCC 25922 [7]; UTBLP in combination with niclosamide): 1 µg/mL
MICUTBLP [MICcombo] (E. coli ATCC 25922 [7]; [11]): 2 µg/mL
MICUTBLP [MICcombo] (E. coli ATCC 25922 [7]; [12]): 4 µg/mL
MICantibiotic [MICcombo] (E. coli ATCC 25922 [7]; [16]): 2 µg/mL
MICantibiotic [MICcombo] (E. coli ATCC 25922 [7]; niclosamide in combination with the UTBLP): 2 µg/mL
MICantibiotic [MICcombo] (E. coli ATCC 25922 [7]; [13]): 0.5 µg/mL
MICantibiotic [MICcombo] (E. coli ATCC 25922 [7]; [14]): 0.063 µg/mL
MICUTBLP (E. cloacae 118564; plate with novobiocin): > 128 µg/mL
MICUTBLP (E. cloacae 118564; plate with rifampicin): > 128 µg/mL
MICUTBLP [MICcombo] (E. cloacae 118564; [11]): 16 µg/mL
MICUTBLP [MICcombo] (E. cloacae 118564; [12]): 16 µg/mL
MICantibiotic [MICcombo] (E. cloacae 118564; [13]): 1 µg/mL
MICantibiotic [MICcombo] (E. cloacae 118564; [14]): 0.5 µg/mL
MICUTBLP (K. pneumoniae 113250; plate with novobiocin): > 128 µg/mL
MICUTBLP (K. pneumoniae 113250; plate with rifampicin): > 128 µg/mL
MICUTBLP [MICcombo] (K. pneumoniae 113250; [11]): 16 µg/mL
MICUTBLP [MICcombo] (K. pneumoniae 113250; [12]): 16 µg/mL
MICantibiotic [MICcombo] (K. pneumoniae 113250; [13]): 2 µg/mL
MICantibiotic [MICcombo] (K. pneumoniae 113250; [14]): 1 µg/mL
MICUTBLP (MRSA ATCC 33592 [8]; [17]): > 128 µg/mL
MICUTBLP [MICcombo] (MRSA ATCC 33592 [8]; [15]): 0.25 µg/mL
MICchloramphenicol [MICcombo] (MRSA ATCC 33592 [8]; [16]): 64 µg/mL
MICUTBLP (S. aureus ATCC 29213 [9]; [17]): 128 µg/mL
MICUTBLP [MICcombo] (S. aureus ATCC 29213 [9]; [15]): 16 µg/mL
MICchloramphenicol [MICcombo] (S. aureus ATCC 29213 [9]; [16]): 4 µg/mL
MICUTBLP (E. faecium ATCC 27270 [10]; [17]): 64 µg/mL
MICUTBLP [MICcombo] (E. faecium ATCC 27270 [10]; [15]): 4 µg/mL
MICchloramphenicol [MICcombo] (E. faecium ATCC 27270 [10]; [16]): 4 µg/mL
Compound: CCCCCCCC(=O)NCCCC[C@H](NC(=O)CCCCCCC)C(=O)N[C@@H](CCCCNC)C(=O)N[C@@H](CCCCNC)C(=O)N[C@@H](CCCCNC)C(=O)N[C@@H](CCCCNC)C(N)=O [UTBLP 6] (Octanoyl-K(Octanoyl)[Lys(Me)][Lys(Me)][Lys(Me)][Lys(Me)]-NH2)
Interpretation (E. coli 94393; UTBLP + novobiocin): Synergy (FICI ≤ 0.5 is synergistic)
Interpretation (E. coli 94393; UTBLP + rifampicin): Synergy (FICI ≤ 0.5 is synergistic)
Interpretation (E. coli ATCC 25922 [7]; UTBLP + chloramphenicol): Synergy (FICI ≤ 0.5 is synergistic)
Interpretation (E. coli ATCC 25922 [7]; UTBLP + niclosamide): Synergy (FICI ≤ 0.5 is synergistic)
Interpretation (E. coli ATCC 25922 [7]; UTBLP + novobiocin): Synergy (FICI ≤ 0.5 is synergistic)
Interpretation (E. coli ATCC 25922 [7]; UTBLP + rifampicin): Synergy (FICI ≤ 0.5 is synergistic)
Interpretation (E. cloacae 118564; UTBLP + novobiocin): Synergy (FICI ≤ 0.5 is synergistic)
Interpretation (E. cloacae 118564; UTBLP + rifampicin): Synergy (FICI ≤ 0.5 is synergistic)
Interpretation (K. pneumoniae 113250; UTBLP + novobiocin): Synergy (FICI ≤ 0.5 is synergistic)
Interpretation (K. pneumoniae 113250; UTBLP + rifampicin): Synergy (FICI ≤ 0.5 is synergistic)
Interpretation (MRSA ATCC 33592 [8]; UTBLP + chloramphenicol): Additive (0.5 < x ≤ 4 is additive)
Interpretation (E. faecium ATCC 27270 [10]; UTBLP + chloramphenicol): Additive (0.5 < x ≤ 4 is additive)
